These results are taken from patent US6387909B1, “Thienopyranecarboxamide derivatives” (Recordati S.A. Chemical and Pharmaceutical Company, priority 1999, dated 2002).

The subject of test [1] is diastolic blood pressure. Briefly: Blood pressure in anaesthetized dogs after intravenous administration. The test is classed as in vivo. The following applies: dog, i.v. The protocol:
(§1) The experiments were performed according to the method of Imagawa et al. (J. Pharmacol. Methods, 22:103-111, 1989), with substantial modifications, as follows: adult male beagle dogs, weighing 8-10 kg, were anaesthetized with pentobarbital sodium (30 mg/kg i.v. and 2 mg/kg/h i.v.), intubated and spontaneously ventilated with room air. In order to monitor systemic blood pressure (BP), a polyethylene (PE) catheter was introduced into the aortic arch through the left femoral artery. A collateral of the left femoral vein was cannulated for infusion of anaesthetic, and the right femoral vein was cannulated for administration of compounds. For intraarterial (i.a.) injection of noradrenaline (NA), a PE catheter was introduced into the lower portion of the abdominal aorta via the right external iliac artery. Through such procedure, NA was selectively distributed to the lower urinary tract. A paramedian vertical suprapubic incision extending from the base of the pelvis to the mid-abdominal region was made and the bladder and the prostate were exposed. The bladder was manually emptied with a syringe. Prostatic urethral pressure was monitored with a Mikro-tip catheter (5F) introduced into the bladder via the external urethral meatus, and withdrawn until the pressure transducer was positioned in the prostatic region of the urethra. A ligature was secured between the neck of the bladder and urethra to isolate the response of the latter and to avoid any interaction with the bladder. Another ligature was put around the Mikro-tip catheter at the external meatus, to secure the catheter itself.
(§2) After a stabilizing period following the surgical procedure (30 minutes), in which arterial and prostatic urethral pressures were continuously monitored as basal values, i.a. administration of NA was made at intervals of 20 minutes.
(§3) The NA doses were chosen to produce an increase of at least 100% in urethral pressure. The test compounds were administered intravenously in a cumulative manner with intervals of 15-20 minutes between administrations. […]

The subject of test [2] is prostatic urethral contractions induced by noradrenaline. The test is described as follows: Urethral contractions induced by noradrenaline injection in anaesthetized dogs after intravenous administration. The test is classed as in vivo. As to conditions: dog, i.v. The protocol: as §1, §2, §3
Test [3] addresses T1, recombinant α1d-adrenoceptor (Homo sapiens, UniProt P25100).
T1 construct: expressed in transfected cells
T1 sequence (P25100 1-572): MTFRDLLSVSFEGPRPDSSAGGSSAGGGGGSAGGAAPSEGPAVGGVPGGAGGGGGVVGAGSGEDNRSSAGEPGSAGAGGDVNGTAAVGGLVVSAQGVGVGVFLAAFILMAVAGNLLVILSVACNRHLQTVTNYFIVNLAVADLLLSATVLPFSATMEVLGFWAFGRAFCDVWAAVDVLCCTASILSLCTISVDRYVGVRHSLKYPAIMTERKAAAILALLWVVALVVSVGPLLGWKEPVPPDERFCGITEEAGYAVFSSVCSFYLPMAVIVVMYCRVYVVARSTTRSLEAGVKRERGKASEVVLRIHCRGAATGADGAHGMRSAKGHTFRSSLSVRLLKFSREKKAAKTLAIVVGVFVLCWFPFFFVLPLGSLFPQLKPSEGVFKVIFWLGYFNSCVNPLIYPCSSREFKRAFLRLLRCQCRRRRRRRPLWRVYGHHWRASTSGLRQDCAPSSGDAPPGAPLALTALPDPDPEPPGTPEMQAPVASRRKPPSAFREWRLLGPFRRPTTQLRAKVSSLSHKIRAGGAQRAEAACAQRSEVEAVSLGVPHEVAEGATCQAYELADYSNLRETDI
Briefly: Radioligand binding ([3H]prazosin) to cloned α1d adrenoceptor. As to conditions: read-out: Affinity (Ki) α1d. The protocol: Determination of affinity for cloned subtypes of the α1-adrenoceptor was performed in membranes from cells transfected by electroporation with DNA expressing the genes encoding each α1-adrenoceptor subtype.
Non-specific binding was determined in the presence of 10 μM phentolamine. Incubation was stopped by addition of ice-cold Tris buffer and rapid filtration through Schleicher & Schuell GF52 filters that had been pretreated with 0.2%-polyethyleneimine.
Data were expressed as mean of Ki.

Test [4] has as its target T2, α1L adrenoceptor (Oryctolagus cuniculus, UniProt O02824).
T2 sequence (O02824 1-466): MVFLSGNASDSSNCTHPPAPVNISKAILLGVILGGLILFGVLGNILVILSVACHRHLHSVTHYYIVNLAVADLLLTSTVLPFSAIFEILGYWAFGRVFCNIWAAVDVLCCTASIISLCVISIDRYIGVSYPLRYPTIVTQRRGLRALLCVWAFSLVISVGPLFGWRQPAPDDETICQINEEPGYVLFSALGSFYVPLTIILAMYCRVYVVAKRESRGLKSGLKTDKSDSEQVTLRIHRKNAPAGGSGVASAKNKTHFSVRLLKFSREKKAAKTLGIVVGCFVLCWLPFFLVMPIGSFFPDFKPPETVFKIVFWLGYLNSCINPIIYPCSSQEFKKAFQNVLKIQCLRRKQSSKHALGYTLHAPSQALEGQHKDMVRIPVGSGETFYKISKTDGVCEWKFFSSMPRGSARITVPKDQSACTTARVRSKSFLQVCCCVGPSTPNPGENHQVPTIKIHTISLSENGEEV
The test is described as follows: Functional antagonism of noradrenaline-induced contractions of rabbit aorta pretreated with chloroethylclonidine. The following applies: NA-induced contractions. The test is classed as biochemical. The protocol: Adult male New Zealand rabbits were sacrificed by cervical dislocation. The aorta was removed, placed in Krebs-Henseleit buffer and dissected free of adhering tissue. […] Desmethylimipramine (0.1 μM) and corticosterone (1 μM) to block neuronal and extraneuronal uptake of NA, (±)-propranol (1 μM) to block β adrenoceptors and yohimbine (0.1 μM) to block α2 adrenoceptors were added to the buffer.
The preparations were equilibrated for 60 minutes and then primed every 30 minutes with 10 μM NA for three times. The aortic rings were then incubated with the alkylating agent chloroethylclonidine (50 μM) for 30 minutes and then washed extensively three times, over a 30 min period before constructing the NA-concentration/response curve. Following washing, tissue was re-equilibrated for 45 min. Test drug was added and after 30 minutes, a second cumulative-NA-concentration/response curve was constructed. Each antagonist concentration was tested using 2-3 aortic rings from different rabbits.
Dose ratios (i.e., the ratio between the concentrations of noradrenaline required to produce half-maximal response in the presence and in the absence of the test antagonist) were calculated at each concentration of the compounds. The logarithm of these dose ratio −1 was plotted against the logarithm of the compound concentrations (Schild plot) to evaluate the affinity constant Kb.
When only one or two concentrations of the test compounds were utilised, the apparent Kb value was calculated using the formula: Kb=[B]/(DOSE RATIO-1), where B is the antagonist concentration.

One may read the Ki as the dissociation constant of the complex between target and ligand, obtained from inhibition or displacement.

Bounds are passed on as bounds.

On to `COc1ccccc1N1CCN(CCCNC(=O)c2csc3c(=O)cc(-c4ccccc4)oc23)CC1` [Example 2, N-{3-[4-(2-Methoxyphenyl)-1-piperazinyl]propyl}-7-oxo-5-phenyl-7H-thieno[3,2-b]pyran-3-carboxamide], for which the “DBP ED25 (dose inducing a 25% decrease in diastolic blood pressure)” value in test [1] came out at 0.0355 mg/kg. In addition, the “UC ID50 NA (dose inhibiting by 50% the urethral contractions induced by noradrenaline)” value in test [2] is 0.0018 mg/kg. For the same molecule, the inhibition constant (Ki) in test [3] worked out at 2.46 nM. Besides, the “pKb, functional affinity for the α1L adrenoceptor subtype” value in test [4] was 8.85.
For `O=C(NCCCN1CCN(c2ccccc2OCC(F)(F)F)CC1)c1csc2c(=O)cc(-c3ccccc3)oc12` [Example 5, 7-Oxo-5-phenyl-N-{3-[4-[2-(2,2,2-trifluoroethoxy)phenyl]-1-piperazinyl]propyl}-7H-thieno[3,2-b]pyran-3-carboxamide], in that order: above 1 mg/kg, 0.0027 mg/kg, 1.01 nM and 9.12.
